# Measurements reported in publication PMC7200681, “The calcitonin-like system is an ancient regulatory system of biomineralization” (Scientific Reports, 2020).
# Bridge positions count the residues as written; N and C are the ends.
# Columns and labels:
# Set-up in all cases: species or system Mytilus galloprovincialis
# [1] = tested on: mussel mantle edge; test: Ex-vivo incubation of mantle edge fragments, calcium quantification by MP-AES; conditions: 4 h at 19-20 °C; CALCIIa 10 μM or ouabain 2 mM alone; MP-AES at 393.366 nm; mean ± SEM; control 400.67 ±13.83 ppm; SEM
# Description: Figure 7 Effect of the mussel calcitonin-like peptide on (A) calcium (ppm) concentration in the mantle edge and (B) calcium uptake by mantle cells of the Mediterranean mussel. (A) The quantity of calcium (ppm) present in the mantle edge after mussel CALCIIa peptide incubation was measured using a Microwave Plasma-Atomic Emission Spectrometer (MP-AES, Agilent) at 393.366 nm. A standard curve for calcium was performed before analysing the samples. In vitro mantle assays with CALCIIa peptide and with ouabain and control (culture medium and mantle) were repeated on at least 3 independent occasions. For each assay at least ten replicates were performed and the mantle edge distal to the umbo was used (one mantle fragment per replica). Prism GraphPad v5 software was used to assess the significance of differences between the groups using a One-way Anova and Tukey’s multiple comparison test. […] C - control (no peptide or ouabain); P - peptide (10 μM); O - ouabain (2 mM), OP - ouabain (2 mM) and peptide (10 μM); PreOP - pre -stimulation for 1 hour with the peptide followed by 4 hours incubation with OP. (B) Digital photographs of the mussel mantle cells in the presence (CALCIIa, 10 μM) or absence (control) of the mussel CALCIIa peptide. Calcium ions were stained with 50 mM of Calcein (green) and cell nuclei (blue) with DAPI (Acros Organics). An increase in cellular fluorescence represents an increase in calcium uptake. Fluorescence of the CALCIIa peptide stimulated cells was 1.9 times higher than the control. The average mantle cell size was 3–4 μm and fluorescent images were taken using a Leica DM IL microscope coupled to a Visicam HDMI 6 digital camera and photographs were analysed using ImageJ software (v. 1.52a) to calculate the fluorescence intensity and for image overlay. The scale bar is indicated.
# The posterior mantle edge region of the Mediterranean mussel was collected and washed in culture medium. The composition of the culture medium was as described in[91] […]
# [2] = tested on: alpha-carbonic anhydrase (CA) esterase activity in mussel mantle edge; test: Esterase (carbonic anhydrase) activity in mantle after ex-vivo incubation; conditions: after exposure to CALCIIa 10 μM or ouabain 2 mM; 4-Nitrophenyl acetate substrate; n = 6
# Description: (§1) (A) Esterase activity and (B) Acid phosphatase activity. Enzyme activity was quantified in protein extracts from the mantle of control or challenged samples that were incubated with the mussel CALCIIa peptide. Values represent the mean ± SEM (CA, n = 6 and TRAP, n = 10) performed in duplicate. Prism GraphPad v5 software was used to assess the significance of the differences between the groups using One-way Anova and Tukey’s multiple comparison test. […] C - control; P - peptide (10 μM); O - ouabain (2 mM), OP - ouabain (2 mM) and peptide (10 μM); PreOP - pre stimulation for 1 hour with the peptide and 4 hours incubation with OP.
# (§2) The posterior mantle edge region of the Mediterranean mussel was collected and washed in culture medium. The composition of the culture medium was as described in[91] […] The culture medium was supplemented with heat inactivated 2% FBS (SIGMA-ALDRICH), 0.1% penicillin: streptomycin antibiotic mix (10.000 U:10 mg/ml, SIGMA-ALDRICH) and 250 μg/ml sterile filtered 1:100 amphotericin B solution (Sigma-Aldrich). The posterior mantle edge from mussels was collected into culture medium and cut into fragments of approximately 1–2 mm in length. […]
# Esterase activity in the mussel posterior mantle edge (n = 6/experimental group) was quantified using a colorimetric assay that measures the conversion of the substrate 4-Nitrophenyl acetate to p-nitrophenolate[92]. […]
# [3] = tested on: acid phosphatase (AP) activity in mussel mantle edge; test: Acid phosphatase (TRAP) activity in mantle after ex-vivo incubation; conditions: after exposure to CALCIIa 10 μM or ouabain 2 mM; TRAP assay, pNPP, pH 5.3; p < 0.05
# Description: as §1, §2
# Acid phosphatase activity of the mantle protein extracts (n = 6/ group) was determined using 96 well-plates (GREINER, Germany) and a tartrate resistant acid phosphatase (TRAP) assay as described in[93].
substance,measurement,setting,value
"H-CTWGGGMSDEMCSTVDIDEIQRSFQVIHDRNSP-NH2 (disulfide 1-12 (inferred)) [CALCIIa, Mediterranean mussel calcitonin-like mature peptide, 33 aa, synthesized with disulphide bond and C-terminal amidation]",Calcium in the mantle edge after incubation,[1],513.38 ± 24.33 ppm
same,CA esterase activity in mantle edge (in words),[2],No change
same,Acid phosphatase (AP) activity in mantle edge compared to control (in words),[3],significantly decreased
